Tested on: SW-620
Test: Antiinvasive activity in human SW620 cells assessed as reduction in cell invasion at 2 uM incubated for 72 hrs by crystal violet staining based assay relative to untreated control
Format: functional

C=C1[C@@H](C)[C@H]2[C@H](Cc3ccccc3)NC(=O)[C@]23[C@H](OC(C)=O)/C=C/[C@@](C)(O)C(=O)[C@@H](C)C/C=C/[C@H]3[C@@H]1O [CYTOCHALASIN D]
fold change (FC): 4
